According to patent US10544144B2, “Fused pyrimidine piperidine cyclic derivative, preparation process and use thereof” (SHANGHAI ALLIST PHARMACEUTICAL AND MEDICAL TECHNOLOGY …, priority 2016, dated 2020):
Read-outs that look alike come from different tables or passages of the source.

What was measured:
[1] = system: Human Acute Myelogenous Leukemia Cell KG-1α (FGFR1 Insertion Mutation); assay: MTT proliferation inhibition, KG-1α cells; format: cell-based; conditions: 72 hours drug exposure
Experimental: (§1) The pharmacodynamic action of the compound of the present invention in terms of inhibiting the proliferation of cancer cells may be determined by conventional methods. One preferable evaluation method is MTT (Thiazolyl Blue) cell activity assay, in which the change in optical absorption value generated after the drug has acted on the cancer cells is measured, and the inhibition ratio of a drug against the proliferation of cancer cells is calculated. Inhibition ratio (%)=[(blank control OD−inhibitor OD)/blank control OD]×100%
(§2) Blank control OD: the OD value of the well of normally grew cells without the action of a drug.
(§3) Inhibitor OD: the OD value of the well of cells with the action of the added compounds to be screened.
(§4) The median inhibitory concentration (IC50) value is obtained by the software GraphPad Prism 5.0 by the 4-parameter logistic curve fit calculation. Each experiment is repeated three times, and the average IC50 value for three experiments is used as the final index for the inhibitory ability.
(§5) Proliferation Inhibition Effect on Human Acute Myelogenous Leukemia Cell KG-1α (FGFR1 Insertion Mutation), Human Gastric Cancer Cell KATO-3 (FGFR2 Amplification), Human Multiple Myeloma Cell KMS-11 (FGFR3 Y373C Mutation)
(§6) Cells in the logarithmic phase were inoculated to 96-well culture plates (cell density: 3000/well for KATO-3, 9000/well for KG-1α, 3000/well for KMS-11, cell suspension: 180 μl/well), and cultured at 37° C. under 5% CO2 for 24 hours. After the culturing, the cells adhered to the well walls. Each of compounds was dissolved in DMSO in advance to formulate a 10 mM stock solution. Upon testing, the stock solution was diluted with complete medium to 10 times the target concentration in another 96-cell plate. And then the compound was added at 20 μl/cell in the 96-well plate in which the cells were inoculated, i.e. the target concentration could be reached. The well for each concentration was triplicated, and the blank control was established. Cells continued to be cultured at 37° C. under 5% CO2 for 72 hours. After the drug acted for 72 hours, 20 μl of Thiazolyl Blue, i.e., MTT was added to each of wells. MTT was dissolved in a phosphate buffer solution free of Ca and Mg ions (D-PBSA) to formulate a 0.5% stock solution in advance. The stock solution was filtered and sterilized. Cells continued to be cultured at 37° C. under 5% CO2 for 4 hours. After 4 hours from the addition of MTT, 100 μl of 14% dimethylformamide-sodium dodecyl sulfate (DMF-SDS) was added to and dissolved in each of wells. Cells were cultured at 37° C. for 3-4 hours, and detected for the light density value (OD) at a wavelength of 570 nm. The inhibition rate was calculated based on the collected data.

[2] = system: Human Gastric Cancer Cell KATO-3 (FGFR2 Amplification); assay: MTT proliferation inhibition, KATO-3 cells; format: cell-based
Source text: The pharmacodynamic action of the compound of the present invention in terms of inhibiting the proliferation of cancer cells may be determined by conventional methods. […] Inhibition ratio (%)=[(blank control OD−inhibitor OD)/blank control OD]×100%
as §2, §3, §4, §5, §6

[3] = system: subcutaneously transplanted tumors of human bladder cancer RT112/84; assay: Growth of subcutaneously transplanted tumors in RT112/84-bearing nude mice; format: in vivo, BALB/c nude mice; conditions: p.o., 14 days, I-5 15 or 25 mg/kg QD, I-13 50 mg/kg BID, BGJ398 15 mg/kg QD, FIG. 1
Source text: The pharmacodynamic action of the compound of the present invention in terms of inhibiting the growth of transplantation tumor in animal may be assayed by conventional methods. One preferable evaluation method involves the inhibitory effect on the growth of subcutaneously transplantation tumor of human bladder cancer RT112/84-bearing nude mice. The experimental method is as follows: 5×10^6 human bladder cancer RT112/84 cells are inoculated to nude mice subcutaneously at the right side of the back thereof, and each mouse is inoculated with 0.1 ml. After the tumors grow to 100-150 mm^3 on average, the animals are divided into groups randomly according to the tumor size and the animal weight. […] During the entire experimental process, the animal weight and the tumor size are measured twice per week, so as to observe whether or not the toxic reaction occurs.
The tumor volume is calculated as follows: Tumor volume (mm^3)=0.5×(Tumor major diameter×Tumor minor diameter^2) Body weight change rate (%)=measured body weight/body weight before administration×100%. […]
Cell cultivation: RT112/84 cells were placed in a MEM medium containing 10% fetal bovine serum (FBS) and 1% non-essential amino acid (NEAA), and cultivated in a temperature-constant incubator containing 5% CO2 at 37° C. The cells in exponential growth phase were collected and counted for inoculation. […]

[4] = system: Human Multiple Myeloma Cell KMS-11 (FGFR3 Y373C Mutation); assay: MTT proliferation inhibition, KMS-11 cells; format: cell-based; conditions: 72 hours drug exposure
Experimental: as §1, §2, §3
The median inhibitory concentration (IC50) value is obtained by the software GraphPad Prism 5.0 by the 4-parameter logistic curve fit calculation. […]
Cells in the logarithmic phase were inoculated to 96-well culture plates (cell density: 3000/well for KATO-3, 9000/well for KG-1α, 3000/well for KMS-11, cell suspension: 180 μl/well), and cultured at 37° C. under 5% CO2 for 24 hours. […] Cells were cultured at 37° C. for 3-4 hours, and detected for the light density value (OD) at a wavelength of 570 nm. The inhibition rate was calculated based on the collected data.

[5] = KATO3, MTT, 72 hours drug exposure, KATO-3 cells, read-out: KATo-3 (FGFR2 amplification) IC50
[6] = KATO3, 72 h, read-out: KATo-3 (FGFR2 amplification) IC50 (nM)

| Compound | IC50 ([1]; Homo sapiens) | IC50 [2, 5] | IC50 [2, 6] | further results |
| --- | --- | --- | --- | --- |
| CCN1CCN(c2ccc(Nc3ncc4c(n3)CCN(c3c(Cl)c(OC)cc(OC)c3Cl)C4)cc2)CC1 [Compound I-1, 6-(2,6-dichloro-3,5-dimethoxyphenyl)-N-(4-(4-ethylpiperazin-1-yl)phenyl)-5,6,7,8-tetrahydropyrido[4,3-d]pyrimidin-2-amine] | 5 nM | 12 nM |  |  |
| COc1cc(OC)c(Cl)c(N2CCc3nc(Nc4ccc(N5CCN(C6CC6)CC5)cc4)ncc3C2)c1Cl [Compound I-6, 6-(2,6-dichloro-3,5-dimethoxyphenyl)-N-(4-(4-cyclopropylpiperazin-1-yl)phenyl)-5,6,7,8-tetrahydropyrido[4,3-d]pyrimidin-2-amine] | 3 nM |  | 11 nM |  |
| CCN1CCN(c2ccc(Nc3ncc4c(n3)CCN(c3cc(C(=O)NC)cc(OC)c3Cl)C4)cn2)CC1 [Compound I-11, 4-chloro-3-(2-(6-(4-ethylpiperazin-1-yl)pyridin-3-ylamino)-7,8dihydropyrido[4,3-d]pyrimidin-6(5H)-yl)-5-methoxy-N-methylbenzamide] | 8 nM | 4 nM |  |  |
| CCN1CCN(c2ccc(Nc3ncc4c(n3)CCN(c3c(Cl)c(OC)cc(OC)c3Cl)C4)cc2)C(=O)C1 [Compound I-7] | 18 nM | 6 nM |  |  |
| CCN1CCN(c2ccc(Nc3ncc4c(n3)CCN(c3c(Cl)c(OC)cc(OC)c3Cl)C4)cc2OC)CC1 [Compound I-10, 6-(2,6-dichloro-3,5-dimethoxyphenyl)-N-(4-(4-ethylpiperazin-1-yl)-3-methoxyphenyl)-5,6,7,8-tetrahydropyrido[4,3-d]pyrimidin-2-amine] | 24 nM | 7 nM |  |  |
| CCN1CCN(c2ccc(Nc3ncc4c(n3)CCN(c3c(Cl)c(OC)cc(OC)c3Cl)C4)cn2)CC1 [Compound I-8, 6-(2,6-dichloro-3,5-dimethoxyphenyl)-N-(6-(4-ethylpiperazin-1-yl)pyridin-3-yl)-5,6,7,8-tetrahydropyrido[4,3-d]pyrimidin-2-amine] | 5 nM | 4 nM |  |  |
| COc1cc(OC)c(Cl)c(N2CCc3nc(Nc4ccc(N5CCC(N(C)C)CC5)cc4)ncc3C2)c1F [Compound I-15, 6-(2-fluoro-6-chloro-3,5-dimethoxyphenyl)-N-(4-(4-(dimethylamino)piperidin-1-yl)phenyl)-5,6,7,8-tetrahydropyrido[4,3-d]pyrimidin-2-amine] | 2 nM | 3 nM |  |  |
| CNC(=O)c1cc(OC)c(Cl)c(N2CCc3nc(Nc4ccc(N5CCC(N(C)C)CC5)cc4)ncc3C2)c1 [Compound I-13] | 6 nM | 3 nM |  |  |
| COc1cc(OC)c(Cl)c(N2CCc3nc(Nc4ccc(N5CCC(N(C)C)CC5)cc4)ncc3C2)c1Cl [Compound I-5, 6-(2,6-dichloro-3,5-dimethoxyphenyl)-N-(4-(4-(dimethylamino)piperidin-1-yl)phenyl)-5,6,7,8-tetrahydropyrido[4,3-d]pyrimidin-2-amine] | 2 nM |  | 4 nM | inhibition effect on the growth of subcutaneously transplanted tumors (tumor volume) [3]: better inhibition effect than BGJ398 |
| COc1cc(OC)c(Cl)c(N2CCc3nc(Nc4ccc(N5CCN(CCN(C)C)CC5)cc4)ncc3C2)c1Cl [Compound I-4, 6-(2,6-dichloro-3,5-dimethoxyphenyl)-N-(4-(4-(2-(dimethylamino)ethyl)piperazin-1-yl)phenyl)-5,6,7,8-tetrahydropyrido[4,3-d]pyrimidin-2-amine] | 2 nM |  | 30 nM |  |
| COc1cc(OC)c(Cl)c(N2CCc3nc(Nc4ccc(N5CCN(CC(F)(F)F)CC5)cc4)ncc3C2)c1Cl [Compound I-2, 6-(2,6-dichloro-3,5-dimethoxyphenyl)-N-(4-(4-(2,2,2-trifluoroethyl)piperazin-1-yl)phenyl)-5,6,7,8-tetrahydropyrido[4,3-d]pyrimidin-2-amine] | 7 nM |  | 45 nM |  |
| COc1cc(OC)c(Cl)c(N2CCc3nc(Nc4ccc(N5CCN(CCO)CC5)nc4)ncc3C2)c1Cl [Compound I-14, 2-(4-(5-(6-(2,6-dichloro-3,5-dimethoxyphenyl)-5,6,7,8-tetrahydropyrido[4,3-d]pyrimidin-2-ylamino)pyridin-2-yl)piperazin-1-yl)ethanol] | 15 nM | 23 nM |  |  |
| COc1cc(OC)c(Cl)c(N2CCc3nc(Nc4ccc(N5CCN(CCO)CC5)cc4)ncc3C2)c1Cl [Compound I-3, 2-(4-(4-(6-(2,6-dichloro-3,5-dimethoxyphenyl)-5,6,7,8-tetrahydropyrido[4,3-d]pyrimidin-2-ylamino)phenyl)piperazin-1-yl)ethanol] | 1 nM |  | 8 nM |  |
| COc1cc(OC)c(Cl)c(N2CCc3nc(Nc4ccc(N5CCC(N(C)C)CC5)nc4)ncc3C2)c1Cl [Compound I-9, 6-(2,6-dichloro-3,5-dimethoxyphenyl)-N-(6-(4-(dimethylamino)piperidin-1-yl)pyridin-3-yl)-5,6,7,8-tetrahydropyrido[4,3-d]pyrimidin-2-amine] | 12 nM | 21 nM |  | IC50 ([4]; Homo sapiens): 200 nM |
| AZD4547 [reference compound] |  |  |  | IC50 [1]: 7 nM; IC50 [4]: 200 nM |
